Data as given in patent US11447577B2, “Cyclodextrin based polymers, methods, compositions and applications thereof” (priority 2016, dated 2022).

How the values were obtained:
[1] = in vivo; set-up: species or system mice; conditions: mouse, sc, 500 mg/kg
Procedure: The effects of various cyclodextrin polymers were tested on WT mice. WT mice were injected with a single sub-cutaneous dose of 500 mg/kg of HPbCD, Polymer A, or Polymer B. PK measurements were taken every 2 hours via HPLC-UV measurements of mouse plasma. FIG. 28 presents the half-life results of this experiment. […] The recovery was 90% from plasma and tissues.

[2] = system: Npc1^nih mice; experiment: Efficacy study in Npc1^nih mouse model (body weight, balance beam test, survival); assay type: in vivo; conditions: HPβCD 4 mg/g s.c. weekly starting at PN7
Procedure: Npc1^nih mouse model is a model for an early onset and faster progressing human diseases. This mouse model arises from the insertion of an active retrotransposon, a spontaneous mutation, which generated a frameshift resulting in a “knock out” of Npc1 gene: small amount of truncated Npc1 mRNA and no protein.
Npc1^nih mice received Polymer B (0.8 mg/g body weight) via injection (s.c.) at the scruff of the neck at PN4, PN7, and PN14. Another group of Npc1^nih mice received HPβCD (4 mg/g body weight; obtained from Sigma-Aldrich and used as received, CAS: 128446-35-5) via injected (s.c.) weekly starting at PN7. Control mice received PBS (sham). Mean volume of the injection was between 50 to 100 μL according to mice size. The body weight, motor behaviour, and survival rate of each group of mice were analyzed.
Example 5 was repeated for Npc1^nih mice receiving Polymer A (0.4 mg/g body weight) via injected (s.c.) weekly starting at PN7 and ending at PN70. The body weight and motor behaviours were analyzed. The results of these analyses were compared to the control mice results from Example 5. […]
The effects of various cyclodextrin polymers, doses, and injection schedules were tested on Npc1^nih mice. […] The body weight, motor behaviour, and survival rate of each group of mice were analyzed.

[3] = system: nmf164 mice; conditions: 4000 mg/kg; cited from earlier work

CC(O)COC[C@H]1O[C@@H]2O[C@H]3[C@H](O)[C@@H](O)[C@@H](O[C@H]4[C@H](O)[C@@H](O)[C@@H](O[C@H]5[C@H](O)[C@@H](O)[C@@H](O[C@H]6[C@H](O)[C@@H](O)[C@@H](O[C@H]7[C@H](O)[C@@H](O)[C@@H](O[C@H]8[C@H](O)[C@@H](O)[C@@H](O[C@H]1[C@H](O)[C@H]2O)O[C@@H]8COCC(C)O)O[C@@H]7COCC(C)O)O[C@@H]6COCC(C)O)O[C@@H]5COCC(C)O)O[C@@H]4COCC(C)O)O[C@@H]3COCC(C)O (stereo partly drawn) [HPβCD, Hydroxypropyl-β-cyclodextrin]
bioavailability [1]: 42%
Body weight and motor behaviour assessment together (rescuing efficacy) [2]: rescuing efficacy
Survival ([2]; control about 10-11 weeks): 16-17 weeks
Median survival [3]: 175 to 185 days
